Patent US11578079B2, “SUMO inhibitor compounds and uses thereof” (CITY OF HOPE, priority 2018, dated 2023)

How the values were obtained:
SUMO = biological target: T1, SUMO (Homo sapiens, UniProt Q9UBT2); assay: SUMO activity (Table I, biological activities); format: biochemical; design: key: + (less active); ++ (active); +++ (most active)
T1 sequence (Q9UBT2 1-640): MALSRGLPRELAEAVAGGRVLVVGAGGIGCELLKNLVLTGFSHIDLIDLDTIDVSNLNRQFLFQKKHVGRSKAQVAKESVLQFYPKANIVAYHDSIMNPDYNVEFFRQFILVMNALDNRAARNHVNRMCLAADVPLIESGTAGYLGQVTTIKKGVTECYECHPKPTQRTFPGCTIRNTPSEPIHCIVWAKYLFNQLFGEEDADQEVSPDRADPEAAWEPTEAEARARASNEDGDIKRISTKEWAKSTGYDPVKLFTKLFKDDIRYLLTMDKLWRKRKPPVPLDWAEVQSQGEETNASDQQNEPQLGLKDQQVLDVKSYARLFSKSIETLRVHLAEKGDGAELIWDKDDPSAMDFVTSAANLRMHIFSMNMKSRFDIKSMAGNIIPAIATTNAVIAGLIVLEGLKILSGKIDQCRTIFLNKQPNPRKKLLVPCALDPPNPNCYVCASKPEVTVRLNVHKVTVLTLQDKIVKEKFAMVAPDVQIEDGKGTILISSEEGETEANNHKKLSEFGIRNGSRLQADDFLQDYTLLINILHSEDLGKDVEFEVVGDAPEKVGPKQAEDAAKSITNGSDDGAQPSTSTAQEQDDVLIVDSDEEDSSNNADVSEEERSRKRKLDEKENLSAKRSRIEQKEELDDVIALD
T1 sequence (Q9UBE0 1-346 partner): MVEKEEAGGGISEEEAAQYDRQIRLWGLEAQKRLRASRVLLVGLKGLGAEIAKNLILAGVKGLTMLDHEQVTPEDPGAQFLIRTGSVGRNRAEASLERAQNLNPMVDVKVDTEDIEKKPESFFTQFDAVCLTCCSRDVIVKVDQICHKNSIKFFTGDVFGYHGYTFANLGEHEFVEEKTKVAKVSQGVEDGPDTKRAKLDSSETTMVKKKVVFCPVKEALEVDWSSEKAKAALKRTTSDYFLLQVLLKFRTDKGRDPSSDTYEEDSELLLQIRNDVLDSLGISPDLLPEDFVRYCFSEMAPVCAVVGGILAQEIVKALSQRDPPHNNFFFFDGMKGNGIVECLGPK

c-Myc = c-Myc activity (Table I, biological activities); design: key: + (less active); ++ (active); +++ (most active)

Row | Compound | SUMO (SUMO) | c-Myc (c-Myc)
1 | COC(=O)C1=C(C(=O)Nc2ccc(C)c(F)c2)C2C=CC1(C(Cc1ccccc1)Nc1cc(F)cc(Cl)c1)O2 (stereo not shown) [Compound 348] | ++ | +
2 | COC(=O)C1=C(C(=O)Nc2c(C)cccc2C)C2C=CC1(C(Cc1ccccc1)Nc1ccccc1)O2 (stereo not shown) [Compound 354] | + | +
3 | COC(=O)C1=C(C(=O)NC2CN(C)C2)C2C=CC1(C(Cc1ccccc1)Nc1ccccc1)O2 (stereo not shown) [Compound 492] | +++ | +
4 | COC(=O)C1=C(C(=O)NC2CCN(C(=O)NCc3cccnc3)CC2)C2C=CC1(C(Cc1ccccc1)Nc1ccccc1)O2 (stereo not shown) [Compound 384] | ++ | +
5 | COC(=O)C1=C(C(=O)NNc2ccccc2)C2C=CC1(C(Cc1ccccc1)Nc1ccccc1)O2 (stereo not shown) [Compound 200] | ++ | ++
6 | CCOC(=O)C1=C(C(=O)NC2CCN(C)CC2)C2CCC1(C(Cc1ccccc1)Nc1ccc(F)cc1F)O2 (stereo not shown) [Compound 345] | + | +
7 | COC(=O)C1=C(C(=O)Nc2cccc(F)c2C)C2C=CC1(C(Cc1ccccc1)Nc1ccccc1)O2 (stereo not shown) [Compound 359] | ++ | +
8 | COC(=O)C1=C(C(=O)Nc2ccc(C)nc2)C2C=CC1(C(Cc1ccccc1)Oc1ccccc1)O2 (stereo not shown) [Compound 333] | + | +
9 | COC(=O)C1=C(C(=O)Nc2cnc(C)nc2)C2C=CC1(C(Cc1ccccc1)Oc1ccccc1)O2 (stereo not shown) [Compound 480] | ++ | +
10 | CCN(CC)CCNC(=O)C1=C(C(=O)OC)C2(C(Cc3ccccc3F)Nc3cc(F)cc(F)c3)C=CC1O2 (stereo not shown) [Compound 456] | ++ | ++
11 | COC(=O)C1=C(C(=O)NC2CCN(C)CC2)C2CCC1(C(Cc1ccccc1)Nc1ccccc1)O2 (stereo not shown) [Compound 304] | + | +
12 | CC12C=CC(C(Cc3ccccc3)Nc3ccccc3)(C=C1C(=O)c1ccc(F)cc1)O2 (stereo not shown) [Compound 526] | + | +
13 | COC(=O)C1=C(C(=O)Nc2ccc(C)nc2)C2CCC1(C(Cc1ccccc1)Nc1ccccc1)O2 (stereo not shown) [Compound 349] | + | +
14 | COC(=O)C1=C(C(=O)OC)C2(C(Cc3ccccc3)Nc3cc(F)cc(Cl)c3)C=CC1O2 (stereo not shown) [Compound 209] | ++ | +
15 | COC(=O)C1=C(C(=O)NC(C)C(N)=O)C2C=CC1(C(Cc1ccccc1)Nc1cc(F)cc(F)c1)O2 (stereo not shown) [Compound 243] | ++ | +
16 | COC(=O)C1=C(C(=O)NC2CCN(C(=O)c3ccccn3)CC2)C2C=CC1(C(Cc1ccccc1)Nc1ccccc1)O2 (stereo not shown) [Compound 391] | ++ | +
17 | CCN(CC)CCNC(=O)C1=C(C(=O)OC)C2C=CC1(C(Cc1ccccc1)Nc1cc(F)cc(F)c1)O2 (stereo not shown) [Compound 402] | ++ | +

Row | Compound | SUMO (SUMO) | c-Myc (c-Myc)
18 | COC(=O)C1=C(C(=O)NC2CCN(C)CC2)C2C=CC1(C(Cc1ccccc1)Oc1ccccc1)O2 (stereo not shown) [Compound 292] | ++ | ++
19 | COC(=O)C1=C(C(=O)NC2CCN(C(C)=O)CC2)C2CCC1(C(Cc1ccccc1)Nc1ccccc1)O2 (stereo not shown) [Compound 368] | + | +
20 | COC(=O)C1=C(C(=O)Nc2ccc(OCCN3CCN(C)CC3)cc2)C2C=CC1(C(Cc1ccccc1)Nc1ccccc1)O2 (stereo not shown) [Compound 501] | +++ | +
21 | COC(=O)C1=C(C(=O)NNc2ccccc2)C2C=CC1(C(Cc1ccccc1)Nc1cc(F)cc(F)c1)O2 (stereo not shown) [Compound 205] | ++ | ++
22 | COC(=O)C1=C(C(=O)NC2CCN(C(=O)C3CCN(C)CC3)CC2)C2C=CC1(C(Cc1ccccc1)Nc1ccccc1)O2 (stereo not shown) [Compound 378] | ++ | +
23 | COC(=O)C1=C(C(=O)NNc2cc(C(F)(F)F)cc(C(F)(F)F)c2)C2(C(Cc3ccccc3)Nc3cc(F)cc(F)c3)C=CC1O2 (stereo not shown) [Compound 316] | ++ | +
24 | CCOC(=O)C1=C(C(=O)OCC)C2(C(Cc3ccccc3)Nc3ccc(F)cc3F)C=CC1O2 (stereo not shown) [Compound 312] | ++ | +
25 | COC(=O)C1=C(C(=O)NCCN(C)C)C2(C)C=CC1(C(Cc1ccccc1)Nc1ccccc1)O2 (stereo not shown) [Compound 594] | ++ | +
26 | COC(=O)C1=C(C(=O)Nc2cccc(F)c2)C2C=CC1(C(Cc1ccccc1)Nc1ccccc1)O2 (stereo not shown) [Compound 276] | ++ | +
27 | COC(=O)C1=C(C(=O)OC)C2(C(Cc3ccccc3)Nc3ccc(F)cc3F)C=CC1O2 (stereo not shown) [Compound 171] | ++ | ++
28 | COC(=O)C1=C(C(=O)OC)C2(C(Cc3ccc(C(F)(F)F)cc3)Nc3ccccc3)C=CC1O2 (stereo not shown) [Compound 422] | ++ | +
29 | COC(=O)C1=C(C(=O)Nc2ccccc2)C2C=CC1(C(Cc1ccccc1)Nc1ccccc1)O2 (stereo not shown) [Compound 163] | ++ | +
30 | COC(=O)C1=C(C(=O)Nc2ccc(C)c(F)c2)C2C=CC1(C(Cc1ccccc1)Nc1ccccc1)O2 (stereo not shown) [Compound 285] | ++ | ++
31 | COC(=O)C1=C(C(=O)NC2CCN(C)C2)C2C=CC1(C(Cc1ccccc1)Nc1cc(F)cc(F)c1)O2 (stereo not shown) [Compound 256] | ++ | +
32 | CNC(=O)C1=C(C(=O)Nc2ccccc2)C2C=CC1(C(Cc1ccccc1)Nc1ccccc1)O2 (stereo not shown) [Compound 305] | + | +
33 | COC(=O)C1=C(C(=O)NC2CCN(C)CC2)C2C=CC1(C(Cc1ccccc1)Nc1c(F)cccc1F)O2 (stereo not shown) [Compound 258] | ++ | +
34 | CCOC(=O)C1=C(C(F)(F)F)C2(C(Cc3ccccc3)Oc3ccccc3)C=CC1O2 (stereo not shown) [Compound 513] | ++ | ++

Second part, led by results:

Row | SUMO (SUMO) | Compound | c-Myc (c-Myc)
35 | ++ | CCOC(=O)C1=C(C(=O)Nc2ccc(OC)cc2)C2C=CC1(C(Nc1ccccc1)c1ccc(CN3CCOCC3)cc1)O2 (stereo not shown) [Compound 567] | +
36 | +++ | COC(=O)C1=C(C(=O)NCCN2CCOCC2)C2C=CC1(C(Cc1ccccc1)Nc1cc(F)cc(Cl)c1)O2 (stereo not shown) [Compound 226] | ++
37 | ++ | C=CCC(Nc1ccccc1)C12C=CC(O1)C(C(=O)NCCN(CC)CC)=C2C(=O)OC (stereo not shown) [Compound 416] | +
38 | +++ | COC(=O)C1=C(C(=O)NCCN(C)C)C2C=CC1(C(Cc1ccccc1)Nc1ccc(F)cc1)O2 (stereo not shown) [Compound 264] | ++
39 | ++ | CCOC(=O)C1=C(C(=O)NCCN(C)C)C2C=CC1(C(Nc1ccccc1)c1ccc(CN3CCOCC3)cc1)O2 (stereo not shown) [Compound 571] | +
40 | + | CCOC(=O)C1=C(C(=O)N(C)C)C2C=CC1(C(Cc1ccccc1)Nc1ccccc1)O2 (stereo not shown) [Compound 593] | +
41 | +++ | COC(=O)C1=C(C(=O)NC2CCN(CCO)CC2)C2C=CC1(C(Cc1ccccc1)Nc1ccccc1)O2 (stereo not shown) [Compound 279] | ++
42 | ++ | COC(=O)C1=C(C(=O)OC)C2(C(Cc3ccc(F)cc3)Nc3ccccc3)C=CC1O2 (stereo not shown) [Compound 445] | +
43 | ++ | COC(=O)C1=C(C(=O)Nc2ccc(CN(C)C)cc2)C2C=CC1(C(Cc1ccccc1)Nc1ccccc1)O2 (stereo not shown) [Compound 506] | +
44 | + | CCOC(=O)C1=C(C(=O)Nc2ccc(OC)cc2OC)C2C=CC1(C(Nc1ccccc1)c1ccc(CN3CCOCC3)cc1)O2 (stereo not shown) [Compound 610] | +
45 | ++ | COC(=O)C1=C(C(=O)NCCN(C)C)C2C=CC1(C(Cc1ccc(Cl)cc1)Nc1cc(F)cc(F)c1)O2 (stereo not shown) [Compound 426] | ++
46 | ++ | CCN(CC)CCNC(=O)C1=C(C(=O)OC)C2(C(Cc3ccccc3)Nc3cc(F)cc(F)c3)C=CC1O2 (stereo not shown) [Compound 400] | ++
47 | ++ | CCOC(=O)C1=C(C(=O)OCC)C2(C(Cc3ccc(F)cc3)Nc3ccccc3)C=CC1O2 (stereo not shown) [Compound 446] | +
48 | ++ | CCN(CC)CCNC(=O)C1=C(C(=O)OC)C2(C(Cc3ccccc3)Nc3ccc(F)cc3F)C=CC1O2 (stereo not shown) [Compound 412] | +
49 | ++ | COC(=O)C1=C(C(=O)Nc2ccc(OC)cc2)C2C=CC1(C(Nc1ccccc1)C1CCC1)O2 (stereo not shown) [Compound 178] | +
50 | ++ | COC(=O)C1=C(C(=O)NCC2CCCO2)C2C=CC1(C(Cc1ccccc1)Nc1ccccc1)O2 (stereo not shown) [Compound 405] | +
